The source of these data is publication PMC6081875 (EJNMMI Research, 2018).

Structures are written as SMILES.

Data set [1] in a line: Blood time-activity curve from venous blood samples (gamma counter, bi-exponential fit). The data set is classed as in vivo, human. The conditions noted are these: blood samples 30 min, 80 min, 24, 48, 72 h p. i.; median of n = 5 patients per therapy. How it is done:
(§1) Data for dosimetry were acquired during a routine 4-day in-patient stay following the radiopharmaceutical injection, in conjunction with standard clinical examinations. All patients received a 15-min one-bed abdominal SPECT scan and a 20-min whole-body planar scintigraphy at 24, 48, and 72 h post-injection (p. i.) on a dual-headed Symbia T2 SPECT/CT (Siemens Medical Solutions, Erlangen, Germany). Counts were detected for the photopeak window of 208 keV (width 15%) by the usage of a medium-energy low-penetration collimator. Two additional scatter windows were measured at 170 keV (width 15%) and 240 keV (width 10%). A low-dose AC-CT was acquired at the first image acquisition session for anatomical correlation and attenuation correction during quantitative SPECT reconstruction. For the determination of the absorbed dose to the bone marrow from the activity circulating in the blood, five venous blood samples were drawn from the site contralateral to injection at 30 and 80 min p. i. and 24, 48, and 72 h p. i..
[11, 13]. […] To derive the patient-specific blood TAC, 1 ml of blood of each sample was pipetted into a test tube and measured within a Cobra Gamma Counter (Packard Instrument Company, Inc., Meriden, CT), which has been previously calibrated via five 1-ml test samples of known activity concentration. […]

Data set [2] is described as follows: Abdominal effective half-life from sequential quantitative SPECT (mono-exponential fit). In kind it is in vivo. As for the experimental part: as §1
Quantitative SPECT images were reconstructed as described by Delker et al. via a rotation-based, penalised, one-step-late ordered subset expectation maximisation algorithm, which included corrections for scatter, attenuation, and distance-dependent geometrical collimator blur. Attenuation correction was performed for each SPECT scan via the AC-CT, which was acquired along with the SPECT scan 24 h post-injection. To apply the attenuation correction, especially to the SPECT scans 48 and 72 h p. i., the single AC-CT was co-registered onto an initial SPECT reconstruction without attenuation correction by using a rigid body co-registration algorithm with six degrees of freedom (PMOD Version 3.609, PMOD Technologies, Zurich, Switzerland). If only one AC-CT is acquired for sequential SPECT imaging, special care has to be taken to minimise misregistration between SPECT images and separately acquired CT scans, as such a misalignment can distort the proper attenuation correction and, thus, activity quantification. This is in principal also true for serial SPECT and CT imaging, as even within a single image acquisition session patient movements cannot be entirely avoided. Scatter correction employed the triple energy window (TEW) method. Correction for distance-dependent collimator blur made use of a Gaussian blur model. Corrections for partial volume effects and dead time were not applied. For conversion of the measured counts per second and per voxel to Becquerel per millilitre, an appropriate calibration factor was determined. Therefore, we used a large cylinder of approximately 20 cm diameter, which was filled with a known activity concentration and which has been imaged and reconstructed via the same protocol.
(§2) First, the abdominal effective decay constant λSPECT was derived via a mono-exponential fit to the total activity in the SPECT scans 24, 48, and 72 h post-therapy. Especially, all organs and all tumours were included in the fitting of the TAC, as it was the case for the determination of A~WB from the reference protocol. This effective decay constant λSPECT serves as a surrogate for the reference-protocol-based whole-body effective decay constant (Fig. 2). The mono-exponential SPECT-based abdominal TAC was then scaled with a chosen base point. This base point is defined via the whole-body activity AWB(t^∗) of a single whole-body planar image acquired at an arbitrary time point t^∗∈ 24, 48, or 72 h post-therapy. The resulting pseudo-whole-body TAC AWB, pseudo(t) is intended to serve as an estimate of the reference-protocol-based whole-body TAC (Eq. (7.1)) and can be further used to determine a pseudo-whole-body time-integrated activity A~WB,pseudo (Eq. (7.2)).

For data set [3], the system named is bone marrow. In words: Bone marrow dosimetry, hybrid protocol (HP): sequential abdominal quantitative SPECT scaled with a single whole-body planar image. In kind it is in vivo, human. As for the experimental part:
The proposed hybrid protocol (HP) uses a single whole-body image and sequential single-bed quantitative SPECT acquisitions of the abdomen to determine the ROB TAC, instead of deriving the ROB TAC from sequential whole-body planar imaging.
as §2, with “This effective decay constant λSPECT serves as a surrogate for the reference-protocol-based whole-body effective decay constant (Fig. 2).” left out
7.1 AWB,pseudot=AWB,pseudot^∗∙exp−λSPECT∙t−t^∗, 7.2 A~WB,pseudo=∫t=0∞AWB,pseudot^′dt^′=AWBt^∗∙expλSPECT∙t^∗/λSPECT=AWBt^∗∙expλSPECT∙t^∗∙T1/2,SPECT/ln2.
Based on the hybrid model given in Eqs. (7.1) and (7.2), the bone marrow absorbed dose from the ROB can be estimated by Eqs. (4.1) and (4.2). In this work, we investigated a combination of the sequential abdominal SPECT with the whole-body planar images at 24, 48, or 72 h p. i., where each whole-body planar image was individually calibrated via the quantitative SPECT at the corresponding time point (Fig. 2). These different hybrid protocols were further denoted as HP24, HP48, and HP72. The agreement of the bone marrow absorbed doses from the ROB, as determined via the HP and the RP, was assessed. Therefore, the percentage deviation between absorbed dose estimates (PDdose; Eq. (8)) was calculated, and a statistical test for correlation was performed (MATLAB Pearson correlation analysis).
Furthermore, the same analysis was performed regarding the total bone marrow absorbed dose estimates composed of all available constituents: the ROB (including tumours), the explicitly analysed organs, and the contribution of the blood activity.

Setting [4] is: mono-exponential fit to total activity in abdominal SPECT 24, 48, 72 h p. i., median of n = 5 patients per therapy.

On to `C[C@@H](O)[C@H](NC(=O)[C@@H]1CSSC[C@H](NC(=O)[C@@H](Cc2ccccc2)NC(=O)CN2CCN(CC(=O)O)CCN(CC(=O)O)CCN(CC(=O)O)CC2)C(=O)N[C@@H](Cc2ccc(O)cc2)C(=O)N[C@H](Cc2c[nH]c3ccccc23)C(=O)N[C@@H](CCCCN)C(=O)N[C@@H]([C@@H](C)O)C(=O)N1)C(=O)O` [Lu-177-Octreotate, Lu-177-[DOTA^0,Tyr^3]-Octreotate, metal not drawn], for which, in data set [1], the “effective half-life for the slow phase of the bi-exponential fit to the blood time-activity measurements” value was 25 h. For the same molecule, the “T1/2, SPECT, SPECT-based abdominal effective half-life” value was found to be 61 h in data set [2] (setting [4]); 53 h in data set [2] (mono-exponential fit, abdominal SPECT 24, 48, 72 h p. i., patient P1 (NET)); 61 h in data set [2] (mono-exponential fit, abdominal SPECT 24, 48, 72 h p. i., patient P2 (NET)); 56 h in data set [2] (mono-exponential fit, abdominal SPECT 24, 48, 72 h p. i., patient P3 (NET)); 73 h in data set [2] (mono-exponential fit, abdominal SPECT 24, 48, 72 h p. i., patient P4 (NET)); 87 h in data set [2] (mono-exponential fit, abdominal SPECT 24, 48, 72 h p. i., patient P5 (NET)). Moreover, the “DBM ← total HP72, total bone marrow absorbed dose” value in data set [3] (whole-body planar image 72 h p. i., patient P1 (NET, 7654 MBq)) is 12.1 mGy/GBq.

Take `O=C(O)CC[C@H](NC(=O)N[C@@H](CCCCNC(=O)[C@H](Cc1ccc2ccccc2c1)NC(=O)[C@H]1CC[C@H](CNC(=O)CN2CCN(CC(=O)O)CCN(CC(=O)O)CCN(CC(=O)O)CC2)CC1)C(=O)O)C(=O)O` [Lu-177-PSMA-617, Lu-177-DKFZ-PSMA-617, metal not drawn]: the “effective half-life for the slow phase of the bi-exponential fit to the blood time-activity measurements” value in data set [1] is 14 h. Moreover, the “T1/2, SPECT, SPECT-based abdominal effective half-life” value is 42 h in data set [2] (setting [4]); 33 h in data set [2] (mono-exponential fit, abdominal SPECT 24, 48, 72 h p. i., patient P6 (mCRPC)); 50 h in data set [2] (mono-exponential fit, abdominal SPECT 24, 48, 72 h p. i., patient P7 (mCRPC)); 67 h in data set [2] (mono-exponential fit, abdominal SPECT 24, 48, 72 h p. i., patient P8 (mCRPC)); 31 h in data set [2] (mono-exponential fit, abdominal SPECT 24, 48, 72 h p. i., patient P9 (mCRPC)); 42 h in data set [2] (mono-exponential fit, abdominal SPECT 24, 48, 72 h p. i., patient P10 (mCRPC)). The “DBM ← total HP24, total bone marrow absorbed dose” value in data set [3] (single whole-body planar image 24 h p. i., median of n = 5 patients per therapy) was determined as 11.3 mGy/GBq; in data set [3] (whole-body planar image 24 h p. i., patient P6 (mCRPC, 3718 MBq)), 11.3 mGy/GBq; in data set [3] (whole-body planar image 24 h p. i., patient P7 (mCRPC, 3743 MBq)), 8.1 mGy/GBq; in data set [3] (whole-body planar image 24 h p. i., patient P8 (mCRPC, 3745 MBq)), 17.1 mGy/GBq; in data set [3] (whole-body planar image 24 h p. i., patient P9 (mCRPC, 3752 MBq)), 13.5 mGy/GBq; in data set [3] (whole-body planar image 24 h p. i., patient P10 (mCRPC, 3700 MBq)), 10.0 mGy/GBq. For the same molecule, the “DBM ← total HP48, total bone marrow absorbed dose” value turned out to be 9.6 mGy/GBq in data set [3] (single whole-body planar image 48 h p. i., median of n = 5 patients per therapy); 9.6 mGy/GBq in data set [3] (whole-body planar image 48 h p. i., patient P6 (mCRPC, 3718 MBq)); 6.7 mGy/GBq in data set [3] (whole-body planar image 48 h p. i., patient P7 (mCRPC, 3743 MBq)); 17.1 mGy/GBq in data set [3] (whole-body planar image 48 h p. i., patient P8 (mCRPC, 3745 MBq)); 13.6 mGy/GBq in data set [3] (whole-body planar image 48 h p. i., patient P9 (mCRPC, 3752 MBq)); 8.1 mGy/GBq in data set [3] (whole-body planar image 48 h p. i., patient P10 (mCRPC, 3700 MBq)). The “DBM ← total HP72, total bone marrow absorbed dose” value is 10.1 mGy/GBq in data set [3] (single whole-body planar image 72 h p. i., median of n = 5 patients per therapy); 10.1 mGy/GBq in data set [3] (whole-body planar image 72 h p. i., patient P6 (mCRPC, 3718 MBq)); 7.0 mGy/GBq in data set [3] (whole-body planar image 72 h p. i., patient P7 (mCRPC, 3743 MBq)); 16.8 mGy/GBq in data set [3] (whole-body planar image 72 h p. i., patient P8 (mCRPC, 3745 MBq)); 15.1 mGy/GBq in data set [3] (whole-body planar image 72 h p. i., patient P9 (mCRPC, 3752 MBq)); 8.5 mGy/GBq in data set [3] (whole-body planar image 72 h p. i., patient P10 (mCRPC, 3700 MBq)).
